Tests used:
p38-α = biological target: T1, p38-α (Homo sapiens, UniProt Q16539); test: p38 kinase assay, p38-α with peptide substrate (Caliper LabChip); format: biochemical; conditions: read-out: IC50 p38a*peptide
T1 construct: purchased Millipore
Method: Alternatively, p38 kinase assays were performed in a reaction volume of 70 µL in a 384-well plate, at 30° for […] under the following conditions: 50 mM Hepes, pH 7.4, 10 mM MgCl2, 1 mg/ml FA Free BSA, 1 mM DTT, 10 μM ATP, 10 μM p38 peptide [Caliper Life Sciences FL-Peptide 8 (5-FAM-IPTSPITTTYFFEKKK-COOH)] and 5.7 nM p38-α (Millipore), or 14.3 nM unactivated MAPKAP kinase-2, 0.18 nM p38-α (Millipore) and 2 uM RSK peptide [Caliper Life Sciences FL-Peptide 11 (5-FAM-KKLNRTLSVA-COOH)]. Serial dilutions of compounds were added to each reaction in 700 nL DMSO. 700 nL of DMSO was added to the control wells of the reaction plate as the no inhibitor control for each inhibitor titration. The reaction was terminated by the addition of 15 μL of a 100 mM EDTA. Product formation was analyzed using the Caliper LabChip 3000. The Separation buffer contained 100 mM HEPES pH 7.5, 0.015% Brij-35, 2.5% Coating Reagent #3 (Caliper Life Sciences) and 10 mM EDTA. Calculation of the substrate product ratios are performed using the HTS Well Analyzer software provided by Caliper Life Sciences and the percent inhibition at each compound concentration is determined.

hWB = test: IC50 hWB (TNF-α release assay); format: cell-based; conditions: Homo sapiens

T1 sequence (Q16539 whole entry): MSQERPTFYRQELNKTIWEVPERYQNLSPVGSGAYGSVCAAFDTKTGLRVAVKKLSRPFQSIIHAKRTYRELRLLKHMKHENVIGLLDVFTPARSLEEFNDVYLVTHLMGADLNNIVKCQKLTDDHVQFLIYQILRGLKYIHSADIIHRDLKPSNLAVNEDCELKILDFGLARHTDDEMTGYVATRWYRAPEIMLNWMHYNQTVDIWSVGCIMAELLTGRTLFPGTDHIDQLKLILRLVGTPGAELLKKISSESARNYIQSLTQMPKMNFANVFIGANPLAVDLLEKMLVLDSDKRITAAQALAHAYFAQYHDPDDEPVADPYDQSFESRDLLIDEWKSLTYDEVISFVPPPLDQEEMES

Cc1nnc(CNC(=O)c2cc(C(=O)c3c(F)cc(F)cc3F)c[nH]2)s1 [Example 1, N-[(5-methyl-1,3,4-thiadiazol-2-yl)methyl]-4-(2,4,6-trifluorobenzoyl)-1-H-pyrrole-2-carboxamide]
IC50 (p38-α): 167 nM | IC50 (hWB): 467 nM

CCCCc1nnc(CNC(=O)c2cc(C(=O)c3c(F)cc(F)cc3F)c[nH]2)s1 [Example 2, N-[(5-butyl-1,3,4-thiadiazol-2-yl)-methyl]-4-(2,4,6-trifluorobenzoyl)-1-H-pyrrole-2-carboxamide]
IC50 (p38-α): 441 nM | IC50 (hWB): 4220 nM

CC(C)c1nnc(CNC(=O)c2cc(C(=O)c3c(F)cc(F)cc3F)c[nH]2)s1 [Example 3, N-[(5-isopropyl-1,3,4-thiadiazol-2-yl)methyl]-4-(2,4,6-trifluorobenzoyl)-1-H-pyrrole-2-carboxamide]
IC50 (p38-α): 479 nM

O=C(NCc1nnc(C2CC2)s1)c1cc(C(=O)c2c(F)cc(F)cc2F)c[nH]1 [Example 4, N-[(5-cyclopropyl-1,3,4-thiadiazol-2-yl)methyl]-4-(2,4,6-trifluorobenzoyl)-1H-pyrrole-2-carboxamide]
IC50 (p38-α): 73 nM | IC50 (hWB): 330 nM

CC(C)(C)c1nnc(CNC(=O)c2cc(C(=O)c3c(F)cc(F)cc3F)c[nH]2)s1 [Example 5, N-[(5-tert-butyl-1,3,4-thiadiazol-2-yl)methyl]-4-(2,4,6-trifluorobenzoyl)-1H-pyrrole-2-carboxamide]
IC50 (p38-α): 608 nM

O=C(NCc1nnc(C2CCCC2)s1)c1cc(C(=O)c2c(F)cc(F)cc2F)c[nH]1 [Example 6, N-[(5-cyclopentyl-1,3,4-thiadiazol-2-yl)methyl]-4-(2,4,6-trifluorobenzoyl)-1H-pyrrole-2-carboxamide]
IC50 (p38-α): 1510 nM | IC50 (hWB): 2870 nM

O=C(NCc1nnc(-c2ccccc2)s1)c1cc(C(=O)c2c(F)cc(F)cc2F)c[nH]1 [Example 7, N-[(5-phenyl-1,3,4-thiadiazol-2-yl)methyl]-4-(2,4,6-trifluorobenzoyl)-1H-pyrrole-2-carboxamide]
IC50 (p38-α): 42 nM | IC50 (hWB): 4350 nM

COc1ccc(-c2nnc(CNC(=O)c3cc(C(=O)c4c(F)cc(F)cc4F)c[nH]3)s2)cc1 [Example 10, N-{[5-(4-methoxyphenyl)-1,3,4-thiadiazol-2-yl]methyl}-4-(2,4,6-trifluorobenzoyl)-1H-pyrrole-2-carboxamide]
IC50 (p38-α): 31 nM

CCOc1ncccc1-c1nnc(CNC(=O)c2cc(C(=O)c3c(F)cc(F)cc3F)c[nH]2)s1 [Example 16, N-{[5-(2-ethoxypyridin-3-yl)-1,3,4-thiadiazol-2-yl]methyl}-4-(2,4,6-trifluorobenzoyl)-1H-pyrrole-2-carboxamide]
IC50 (p38-α): 135 nM

COc1cccc(-c2nnc(CNC(=O)c3cc(C(=O)c4c(F)cc(F)cc4F)c[nH]3)s2)n1 [Example 18, N-{[5-(6-methoxypyridin-2-yl)-1,3,4-thiadiazol-2-yl]methyl}-4-(2,4,6-trifluorobenzoyl)-1H-pyrrole-2-carboxamide]
IC50 (p38-α): 94 nM

COc1cc(-c2nnc(CNC(=O)c3cc(C(=O)c4c(F)cc(F)cc4F)c[nH]3)s2)ccn1 [Example 19, N-{[5-(2-methoxypyridin-4-yl)-1,3,4-thiadiazol-2-yl]methyl}-4-(2,4,6-trifluorobenzoyl)-1H-pyrrole-2-carboxamide]
IC50 (p38-α): 85 nM

O=C(NCc1nnc(C2CCC2)s1)c1cc(C(=O)c2c(F)cc(F)cc2F)c[nH]1 [Example 22, N-[(5-cyclobutyl-1,3,4-thiadiazol-2-yl)methyl]-4-(2,4,6-trifluorobenzoyl)-1H-pyrrole-2-carboxamide]
IC50 (p38-α): 489 nM

CC1(c2nnc(CNC(=O)c3cc(C(=O)c4c(F)cc(F)cc4F)c[nH]3)s2)CC1 [Example 23, N-{[5-(1-methylcyclopropyl)-1,3,4-thiadiazol-2-yl]methyl}-4-(2,4,6-trifluorobenzoyl)-1H-pyrrole-2-carboxamide]
IC50 (p38-α): 826 nM

CCC(C)c1nnc(CNC(=O)c2cc(C(=O)c3c(F)cc(F)cc3F)c[nH]2)s1 (stereo not drawn) [Example 24, N-[(5-sec-butyl-1,3,4-thiadiazol-2-yl)methyl]-4-(2,4,6-trifluorobenzoyl)-1H-pyrrole-2-carboxamide]
IC50 (p38-α): 1020 nM

O=C(NCc1nnc(-c2cc(C(F)(F)F)n[nH]2)s1)c1cc(C(=O)c2c(F)cc(F)cc2F)c[nH]1 [Example 27, 4-(2,4,6-trifluorobenzoyl)-N-({5-[3-(trifluoromethyl)-1H-pyrazol-5-yl]-1,3,4-thiadiazol-2-yl}methyl)-1H-pyrrole-2-carboxamide]
IC50 (p38-α): 1400 nM

O=C(NCc1nnc(-c2csnn2)s1)c1cc(C(=O)c2c(F)cc(F)cc2F)c[nH]1 [Example 30, N-{[5-(1,2,3-thiadiazol-4-yl)-1,3,4-thiadiazol-2-yl]methyl}-4-(2,4,6-trifluorobenzoyl)-1H-pyrrole-2-carboxamide]
IC50 (p38-α): 634 nM

O=C(NCc1nnc(-c2[nH]nc3c2CCC3)s1)c1cc(C(=O)c2c(F)cc(F)cc2F)c[nH]1 [Example 31, N-{[5-(2,4,5,6-tetrahydrocyclopenta[c]pyrazol-3-yl)-1,3,4-thiadiazol-2-yl]methyl}-4-(2,4,6-trifluorobenzoyl)-1H-pyrrole-2-carboxamide]
IC50 (p38-α): 36 nM

Cc1cc(-c2nnc(CNC(=O)c3cc(C(=O)c4c(F)cc(F)cc4F)c[nH]3)s2)nn1C [Example 33, N-{[5-(1,5-dimethyl-1H-pyrazol-3-yl)-1,3,4-thiadiazol-2-yl]methyl}-4-(2,4,6-trifluorobenzoyl)-1H-pyrrole-2-carboxamide]
IC50 (p38-α): 35.1 nM

O=C(NCc1nnc(-c2cn[nH]n2)s1)c1cc(C(=O)c2c(F)cc(F)cc2F)c[nH]1 [Example 34, N-{[5-(2H-1,2,3-triazol-4-yl)-1,3,4-thiadiazol-2-yl]methyl}-4-(2,4,6-trifluorobenzoyl)-1,1-pyrrole-2-carboxamide]
IC50 (p38-α): 180 nM

O=C(NCc1nnc(-c2ccc(=O)[nH]c2)s1)c1cc(C(=O)c2c(F)cc(F)cc2F)c[nH]1 [Example 36, N-{[5-(6-oxo-1,6-dihydropyridin-3-yl)-1,3,4-thiadiazol-2-yl]methyl}-4-(2,4,6-trifluorobenzoyl)-1H-pyrrole-2-carboxamide]
IC50 (p38-α): 70.4 nM

O=C(NCc1nnc(-c2cccc(=O)[nH]2)s1)c1cc(C(=O)c2c(F)cc(F)cc2F)c[nH]1 [Example 37, N-{[5-(6-oxo-1,6-dihydropyridin-2-yl)-1,3,4-thiadiazol-2-yl]methyl}-4-(2,4,6-trifluorobenzoyl)-1H-pyrrole-2-carboxamide]
IC50 (p38-α): 173 nM

O=C(NCc1nnc(-c2cc[nH]c(=O)c2)s1)c1cc(C(=O)c2c(F)cc(F)cc2F)c[nH]1 [Example 38, N-{[5-(2-oxo-1,2-dihydropyridin-4-yl)-1,3,4-thiadiazol-2-yl]methyl}-4-(2,4,6-trifluorobenzoyl)-1H-pyrrole-2-carboxamide]
IC50 (p38-α): 26.9 nM

Cc1nnc(CNC(=O)c2cc(C(=O)c3ccc(F)cc3F)c[nH]2)s1 [Example 39, 4-(2,4-difluorobenzoyl)-N-[(5-methyl-1,3,4-thiadiazol-2-yl)methyl]-1H-pyrrole-2-carboxamide]
IC50 (p38-α): 222 nM

Cc1nnc(CNC(=O)c2cc(C(=O)c3c(F)cccc3F)c[nH]2)s1 [Example 40, 4-(2,6-difluorobenzoyl)-N-[(5-methyl-1,3,4-thiadiazol-2-yl)methyl]-1H-pyrrole-2-carboxamide]
IC50 (p38-α): 150 nM

O=C(NCc1nnc(-c2ccccn2)s1)c1cc(Cc2c(F)cc(F)cc2F)c[nH]1 [Example 44, N-[(5-pyridin-2-yl-1,3,4-thiadiazol-2-yl)methyl]-4-(2,4,6-trifluorobenzyl)-1H-pyrrole-2-carboxamide]
IC50 (p38-α): 555 nM

Reference: patent publication US8513289B2, “P38 kinase inhibiting agents” (Merck Sharp & Dohme Corp., priority 2009, dated 2013)
